Test results published in the supplement of paper PMC5908809.

Tests used:
[1] = test system: normal NK cells expanded with K562-aAPC; test: drug sensitivity score (DSS) (DSS units); higher = more sensitive; extreme values may be limits of the assay; conditions: 72 h; IL-2 2.5 ng/mL
Protocol: (§1)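 Drug sensitivity and resistance testing on K562-aAPC-expanded normal NK cells: 5 concentrations (10-fold steps over a 10,000-fold range), 72 h at 37 °C, viability by CellTiter-Glo normalised to DMSO and benzethonium chloride controls; DSS from the fitted curve.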

[2] = test system: normal NK cells expanded with K562-aAPC; test: percent inhibition of viability; higher = more inhibition; conditions: 72 h, IL-2 2.5 ng/mL
Protocol: as §1

[3] = test system: normal primary NK cells, pool 1 (3 donors), resting (IL-2 0 ng/mL); test: as above; conditions: 72 h
[4] = test system: normal primary NK cells, pool 2 (3 donors) (IL-2 2.5 ng/mL); test: as above; conditions: 72 h
KAI3 (IL-2 2.5 ng/mL) [5] = test: as above; conditions: 72 h
KHYG-1 (IL-2 2.5 ng/mL) [6] = test: as above; conditions: 72 h
NKL (IL-2 2.5 ng/mL) [7] = test: as above; conditions: 72 h
YT (IL-2 2.5 ng/mL) [8] = test: as above; conditions: 72 h
IMC-1 (IL-2 20 ng/mL) [9] = test: as above; conditions: 72 h
DERL-7 (IL-2 2.5 ng/mL) [10] = test: as above; conditions: 72 h
NK-92 (IL-2 2.5 ng/mL) [11] = test: as above; conditions: 72 h
[12] = test system: normal primary NK cells, pool 3 (3 donors) (IL-2 2.5 ng/mL); test: as above; conditions: 72 h
NK-YS (IL-2 2.5 ng/mL) [13] = test: as above; conditions: 72 h
[14] = test system: normal primary NK cells, pool 1 (3 donors) (IL-2 2.5 ng/mL); test: as above; conditions: 72 h
SNK-6 (IL-2 2.5 ng/mL) [15] = test: as above; conditions: 72 h
[16] = test system: normal primary NK cells, pool 1 (3 donors), resting (IL-2 0 ng/mL); test: drug sensitivity score (DSS) (DSS units); higher = more sensitive; extreme values may be limits of the assay; conditions: 72 h
[17] = test system: normal primary NK cells, pool 2 (3 donors) (IL-2 2.5 ng/mL); test: as above; conditions: 72 h
KAI3 (IL-2 2.5 ng/mL) [18] = test: as above; conditions: 72 h
KHYG-1 (IL-2 2.5 ng/mL) [19] = test: as above; conditions: 72 h
NKL (IL-2 2.5 ng/mL) [20] = test: as above; conditions: 72 h
YT (IL-2 2.5 ng/mL) [21] = test: as above; conditions: 72 h
IMC-1 (IL-2 20 ng/mL) [22] = test: as above; conditions: 72 h
DERL-7 (IL-2 2.5 ng/mL) [23] = test: as above; conditions: 72 h
NK-92 (IL-2 2.5 ng/mL) [24] = test: as above; conditions: 72 h
[25] = test system: normal primary NK cells, pool 3 (3 donors) (IL-2 2.5 ng/mL); test: as above; conditions: 72 h
NK-YS (IL-2 2.5 ng/mL) [26] = test: as above; conditions: 72 h
[27] = test system: normal primary NK cells, pool 1 (3 donors) (IL-2 2.5 ng/mL); test: as above; conditions: 72 h
SNK-6 (IL-2 2.5 ng/mL) [28] = test: as above; conditions: 72 h

COc1cc2c(Nc3ccc(Cl)c(Cl)c3F)ncnc2cc1OC[C@@H]1C[C@@H]2CN(C)C[C@@H]2C1 [XL-647] (max concentration tested 1000 nM)
drug sensitivity score [1]: 3.02
percent inhibition of viability ([2]; 0.1 nM): -7%
percent inhibition of viability ([2]; 1 nM): -6.81%
percent inhibition of viability ([2]; 10 nM): -2.66%
percent inhibition of viability ([2]; 100 nM): 7.59%
percent inhibition of viability ([2]; 1000 nM): 37.1%
percent inhibition of viability ([3]; 0.1 nM): -0.45%
percent inhibition of viability ([3]; 1 nM): 21.2%
percent inhibition of viability ([3]; 10 nM): 8.11%
percent inhibition of viability ([3]; 100 nM): 17.6%
percent inhibition of viability ([3]; 1000 nM): 64.4%
percent inhibition of viability ([4]; 0.1 nM): -4.62%
percent inhibition of viability ([4]; 1 nM): 6.47%
percent inhibition of viability ([4]; 10 nM): 1.95%
percent inhibition of viability ([4]; 100 nM): -3.8%
percent inhibition of viability ([4]; 1000 nM): 39.6%
percent inhibition of viability (KAI3 (IL-2 2.5 ng/mL) [5]; 0.1 nM): -2.77%
percent inhibition of viability (KAI3 (IL-2 2.5 ng/mL) [5]; 1 nM): -5.01%
percent inhibition of viability (KAI3 (IL-2 2.5 ng/mL) [5]; 10 nM): 0.66%
percent inhibition of viability (KAI3 (IL-2 2.5 ng/mL) [5]; 100 nM): 13.1%
percent inhibition of viability (KAI3 (IL-2 2.5 ng/mL) [5]; 1000 nM): 44%
percent inhibition of viability (KHYG-1 (IL-2 2.5 ng/mL) [6]; 0.1 nM): -6.79%
percent inhibition of viability (KHYG-1 (IL-2 2.5 ng/mL) [6]; 1 nM): -7.9%
percent inhibition of viability (KHYG-1 (IL-2 2.5 ng/mL) [6]; 10 nM): -4.38%
percent inhibition of viability (KHYG-1 (IL-2 2.5 ng/mL) [6]; 100 nM): -1%
percent inhibition of viability (KHYG-1 (IL-2 2.5 ng/mL) [6]; 1000 nM): 19.7%
percent inhibition of viability (NKL (IL-2 2.5 ng/mL) [7]; 0.1 nM): -12.1%
percent inhibition of viability (NKL (IL-2 2.5 ng/mL) [7]; 1 nM): -2.96%
percent inhibition of viability (NKL (IL-2 2.5 ng/mL) [7]; 10 nM): 0.78%
percent inhibition of viability (NKL (IL-2 2.5 ng/mL) [7]; 100 nM): 18.2%
percent inhibition of viability (NKL (IL-2 2.5 ng/mL) [7]; 1000 nM): 55.1%
percent inhibition of viability (YT (IL-2 2.5 ng/mL) [8]; 0.1 nM): -6.35%
percent inhibition of viability (YT (IL-2 2.5 ng/mL) [8]; 1 nM): -3.87%
percent inhibition of viability (YT (IL-2 2.5 ng/mL) [8]; 10 nM): -2.73%
percent inhibition of viability (YT (IL-2 2.5 ng/mL) [8]; 100 nM): 5.21%
percent inhibition of viability (YT (IL-2 2.5 ng/mL) [8]; 1000 nM): 28.1%
percent inhibition of viability (IMC-1 (IL-2 20 ng/mL) [9]; 0.1 nM): -7%
percent inhibition of viability (IMC-1 (IL-2 20 ng/mL) [9]; 1 nM): -0.32%
percent inhibition of viability (IMC-1 (IL-2 20 ng/mL) [9]; 10 nM): 0.43%
percent inhibition of viability (IMC-1 (IL-2 20 ng/mL) [9]; 100 nM): -6.58%
percent inhibition of viability (IMC-1 (IL-2 20 ng/mL) [9]; 1000 nM): 6.29%
percent inhibition of viability (DERL-7 (IL-2 2.5 ng/mL) [10]; 0.1 nM): 2.38%
percent inhibition of viability (DERL-7 (IL-2 2.5 ng/mL) [10]; 1 nM): 4.2%
percent inhibition of viability (DERL-7 (IL-2 2.5 ng/mL) [10]; 10 nM): 2.43%
percent inhibition of viability (DERL-7 (IL-2 2.5 ng/mL) [10]; 100 nM): 5.16%
percent inhibition of viability (DERL-7 (IL-2 2.5 ng/mL) [10]; 1000 nM): 49.9%
percent inhibition of viability (NK-92 (IL-2 2.5 ng/mL) [11]; 0.1 nM): 2.48%
percent inhibition of viability (NK-92 (IL-2 2.5 ng/mL) [11]; 1 nM): -1.64%
percent inhibition of viability (NK-92 (IL-2 2.5 ng/mL) [11]; 10 nM): 0.32%
percent inhibition of viability (NK-92 (IL-2 2.5 ng/mL) [11]; 100 nM): 10.1%
percent inhibition of viability (NK-92 (IL-2 2.5 ng/mL) [11]; 1000 nM): 56.2%
percent inhibition of viability ([12]; 0.1 nM): -9.94%
percent inhibition of viability ([12]; 1 nM): 18.6%
percent inhibition of viability ([12]; 10 nM): 6.02%
percent inhibition of viability ([12]; 100 nM): -4.74%
percent inhibition of viability ([12]; 1000 nM): 21.1%
percent inhibition of viability (NK-YS (IL-2 2.5 ng/mL) [13]; 0.1 nM): -8.01%
percent inhibition of viability (NK-YS (IL-2 2.5 ng/mL) [13]; 1 nM): -7.74%
percent inhibition of viability (NK-YS (IL-2 2.5 ng/mL) [13]; 10 nM): -6.62%
percent inhibition of viability (NK-YS (IL-2 2.5 ng/mL) [13]; 100 nM): 1.82%
percent inhibition of viability (NK-YS (IL-2 2.5 ng/mL) [13]; 1000 nM): 42.2%
percent inhibition of viability ([14]; 0.1 nM): 0.18%
percent inhibition of viability ([14]; 1 nM): 15.8%
percent inhibition of viability ([14]; 10 nM): 5.17%
percent inhibition of viability ([14]; 100 nM): 13.4%
percent inhibition of viability ([14]; 1000 nM): 36.7%
percent inhibition of viability (SNK-6 (IL-2 2.5 ng/mL) [15]; 0.1 nM): 17.2%
percent inhibition of viability (SNK-6 (IL-2 2.5 ng/mL) [15]; 1 nM): -16.8%
percent inhibition of viability (SNK-6 (IL-2 2.5 ng/mL) [15]; 10 nM): -17.2%
percent inhibition of viability (SNK-6 (IL-2 2.5 ng/mL) [15]; 100 nM): -22.1%
percent inhibition of viability (SNK-6 (IL-2 2.5 ng/mL) [15]; 1000 nM): 3.73%
drug sensitivity score [16]: 5.88
drug sensitivity score [17]: 1.68
drug sensitivity score (KAI3 (IL-2 2.5 ng/mL) [18]): 4.2
drug sensitivity score (KHYG-1 (IL-2 2.5 ng/mL) [19]): 0.5
drug sensitivity score (NKL (IL-2 2.5 ng/mL) [20]): 5.6
drug sensitivity score (YT (IL-2 2.5 ng/mL) [21]): 1.99
drug sensitivity score (IMC-1 (IL-2 20 ng/mL) [22]): 0
drug sensitivity score (DERL-7 (IL-2 2.5 ng/mL) [23]): 3.48
drug sensitivity score (NK-92 (IL-2 2.5 ng/mL) [24]): 4.71
drug sensitivity score [25]: 0.47
drug sensitivity score (NK-YS (IL-2 2.5 ng/mL) [26]): 2.37
drug sensitivity score [27]: 3.29
drug sensitivity score (SNK-6 (IL-2 2.5 ng/mL) [28]): 0
